Source: US20220089568A1 (Janssen Biotech, Inc., priority 2019, published 2022)

Assays:
[1] = molecular target: T1, human DHODH (Homo sapiens, UniProt Q02127); assay: DHODH Enzymatic Assay; format: biochemical; settings: purified human DHODH; DCIP absorbance, end-point mode
T1 construct: purchased Proteros PR-0044
Outline: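 Purified human DHODH activity read as absorbance of DCIP, the terminal electron acceptor, in […] pH 7.5, 150 mM NaCl, 0.5 mM EDTA, 0.1% Triton X-100. Reaction started with a substrate mix of 20 mM DHO, 5 mM CoQ6 and 1 mM DCIP in assay buffer.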

[2] = test system: MOLM-13 cells; assay: MOLM-13 Cellular Assay; format: cell-based; settings: Homo sapiens, 72 hours exposure, cell viability by CellTiter-Glo
Procedure: The day prior to assay set-up, cells were pelleted, resuspended in fresh media, counted, and cells were plated at 0.4×10^6 cell/mL in a T150 flask. […] Cells were exposed to different concentrations of test compounds at 37° C., 5% CO2 for 72 hours immediately after seeding.

T1 sequence (Q02127 whole entry): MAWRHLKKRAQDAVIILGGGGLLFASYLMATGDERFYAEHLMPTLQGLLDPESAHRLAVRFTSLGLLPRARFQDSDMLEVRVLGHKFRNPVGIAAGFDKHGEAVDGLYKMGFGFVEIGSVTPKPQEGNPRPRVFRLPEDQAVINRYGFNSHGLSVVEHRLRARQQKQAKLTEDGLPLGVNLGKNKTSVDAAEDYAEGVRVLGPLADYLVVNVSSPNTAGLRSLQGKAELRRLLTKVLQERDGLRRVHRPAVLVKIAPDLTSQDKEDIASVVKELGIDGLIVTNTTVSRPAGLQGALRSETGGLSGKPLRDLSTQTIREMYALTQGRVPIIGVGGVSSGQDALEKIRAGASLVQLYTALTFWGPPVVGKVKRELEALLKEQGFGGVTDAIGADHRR

Row | EC50 [1] | EC50 [2] | Structure (SMILES)
1 | 17.4 nM | 52.4 nM | CCn1c(CO)nn(-c2nc(O[C@@H](C)C(F)(F)F)c(C(=O)Nc3cc(C)cnc3OC)cc2F)c1=O [Example 41, (S)-6-(4-Ethyl-3-(hydroxymethyl)-5-oxo-4,5-dihydro-1H-1,2,4-triazol-1-yl)-5-fluoro-N-(2-methoxy-5-methylpyridin-3-yl)-2-((1,1,1-trifluoropropan-2-yl)oxy)nicotinamide]
2 | 2.4 nM | 4.3 nM | CCn1c(CO)nn(-c2nc(O[C@@H](C)C(F)(F)F)c(C(=O)Nc3c(C)ccnc3F)cc2F)c1=O [Example 42, (S)-6-(4-Ethyl-3-(hydroxymethyl)-5-oxo-4,5-dihydro-1H-1,2,4-triazol-1-yl)-5-fluoro-N-(2-fluoro-4-methylpyridin-3-yl)-2-((1,1,1-trifluoropropan-2-yl)oxy)nicotinamide]
3 | 815 nM | > 100 nM | CCn1c(CO)nn(-c2nc(O[C@@H](C)C(F)(F)F)c(C(=O)Nc3ncnc(C)c3C)cc2F)c1=O [Example 43, (S)-N-(5,6-Dimethylpyrimidin-4-yl)-6-(4-ethyl-3-(hydroxymethyl)-5-oxo-4,5-dihydro-1H-1,2,4-triazol-1-yl)-5-fluoro-2-((1,1,1-trifluoropropan-2-yl)oxy)nicotinamide]
4 | 3.9 nM | 10.7 nM | CCn1c(CO)nn(-c2nc(O[C@@H](C)C(F)(F)F)c(C(=O)Nc3c(OC)ccnc3Cl)cc2F)c1=O [Example 44, (S)-N-(2-Chloro-4-methoxypyridin-3-yl)-6-(4-ethyl-3-(hydroxymethyl)-5-oxo-4,5-dihydro-1H-1,2,4-triazol-1-yl)-5-fluoro-2-((1,1,1-trifluoropropan-2-yl)oxy)nicotinamide]
5 | 142 nM | > 100 nM | CCn1c(CO)nn(-c2nc(O[C@@H](C)C(F)(F)F)c(C(=O)Nc3conc3C)cc2F)c1=O [Example 45, (S)-6-(4-Ethyl-3-(hydroxymethyl)-5-oxo-4,5-dihydro-1H-1,2,4-triazol-1-yl)-5-fluoro-N-(3-methylisoxazol-4-yl)-2-((1,1,1-trifluoropropan-2-yl)oxy)nicotinamide]
6 | 12.7 nM | 32.5 nM | CCn1c(CO)nn(-c2nc(O[C@@H](C)C(F)(F)F)c(C(=O)Nc3c(C)noc3C)cc2F)c1=O [Example 46, (S)-N-(3,5-Dimethylisoxazol-4-yl)-6-(4-ethyl-3-(hydroxymethyl)-5-oxo-4,5-dihydro-1H-1,2,4-triazol-1-yl)-5-fluoro-2-((1,1,1-trifluoropropan-2-yl)oxy)nicotinamide]
7 | 13.5 nM | 6.9 nM | CCn1c(CO)nn(-c2nc(O[C@@H](C)C(F)(F)F)c(C(=O)Nc3cc(OC)ccc3F)cc2F)c1=O [Example 47, (S)-6-(4-Ethyl-3-(hydroxymethyl)-5-oxo-4,5-dihydro-1H-1,2,4-triazol-1-yl)-5-fluoro-N-(2-fluoro-5-methoxyphenyl)-2-((1,1,1-trifluoropropan-2-yl)oxy)nicotinamide]
8 | 0.761 nM | 0.553 nM | CCn1c(CO)nn(-c2nc(O[C@@H](C)C(F)(F)F)c(C(=O)Nc3cc(C)ccc3Cl)cc2F)c1=O [Example 48, (S)-N-(2-Chloro-5-methylphenyl)-6-(4-ethyl-3-(hydroxymethyl)-5-oxo-4,5-dihydro-1H-1,2,4-triazol-1-yl)-5-fluoro-2-((1,1,1-trifluoropropan-2-yl)oxy)nicotinamide]
9 | 6.4 nM | 21.1 nM | CCn1c(CO)nn(-c2nc(O[C@@H](C)C(F)(F)F)c(C(=O)Nc3c(C)n[nH]c3C)cc2F)c1=O [Example 49, (S)-N-(3,5-Dimethyl-1H-pyrazol-4-yl)-6-(4-ethyl-3-(hydroxymethyl)-5-oxo-4,5-dihydro-1H-1,2,4-triazol-1-yl)-5-fluoro-2-((1,1,1-trifluoropropan-2-yl)oxy)nicotinamide]
10 | 0.852 nM | 1.83 nM | CCn1c(CO)nn(-c2nc(O[C@@H](C)C(F)(F)F)c(C(=O)Nc3cnc(OC)cc3Cl)cc2F)c1=O [Example 50, (S)-N-(4-Chloro-6-methoxypyridin-3-yl)-6-(4-ethyl-3-(hydroxymethyl)-5-oxo-4,5-dihydro-1H-1,2,4-triazol-1-yl)-5-fluoro-2-((1,1,1-trifluoropropan-2-yl)oxy)nicotinamide]
11 | 6.4 nM | 52.4 nM | CCn1c(CO)nn(-c2nc(O[C@@H](C)C(F)(F)F)c(C(=O)Nc3cc(C)cnc3C)cc2F)c1=O [Example 51, (S)-N-(2,5-Dimethylpyridin-3-yl)-6-(4-ethyl-3-(hydroxymethyl)-5-oxo-4,5-dihydro-1H-1,2,4-triazol-1-yl)-5-fluoro-2-((1,1,1-trifluoropropan-2-yl)oxy)nicotinamide]
12 | 13 nM | 68.9 nM | CCn1c(CO)nn(-c2nc(O[C@@H](C)C(F)(F)F)c(C(=O)Nc3cc(Cl)cnc3C)cc2F)c1=O [Example 52]
13 | 144 nM | > 100 nM | CCn1c(CO)nn(-c2nc(O[C@@H](C)C(F)(F)F)c(C(=O)Nc3c(C)ccn(C)c3=O)cc2F)c1=O [Example 53, N-(1,4-Dimethyl-2-oxo-2,3-dihydro-1l4-pyridin-3-yl)-6-(4-ethyl-3-(hydroxymethyl)-5-oxo-4,5-dihydro-1H-1,2,4-triazol-1-yl)-5-fluoro-2-(((S)-1,1,1-trifluoropropan-2-yl)oxy)nicotinamide]
14 | 5.2 nM | 6.9 nM | CCn1c(CO)nn(-c2nc(O[C@@H](C)C(F)(F)F)c(C(=O)Nc3ncccc3Cl)cc2F)c1=O [Example 54, (S)-N-(3-Chloropyridin-2-yl)-6-(4-ethyl-3-(hydroxymethyl)-5-oxo-4,5-dihydro-1H-1,2,4-triazol-1-yl)-5-fluoro-2-((1,1,1-trifluoropropan-2-yl)oxy)nicotinamide]
15 | 17.3 nM | > 100 nM | CCn1c(CO)nn(-c2nc(O[C@@H](C)C(F)(F)F)c(C(=O)Nc3c(C)nn(C)c3C)cc2F)c1=O [Example 55, (S)-6-(4-Ethyl-3-(hydroxymethyl)-5-oxo-4,5-dihydro-1H-1,2,4-triazol-1-yl)-5-fluoro-2-((1,1,1-trifluoropropan-2-yl)oxy)-N-(1,3,5-trimethyl-1H-pyrazol-4-yl)nicotinamide]
16 | 4.6 nM | 5.2 nM | CCn1c(CO)nn(-c2nc(O[C@@H](C)C(F)(F)F)c(C(=O)Nc3nc(OC)ccc3F)cc2F)c1=O [Example 56, (S)-6-(4-Ethyl-3-(hydroxymethyl)-5-oxo-4,5-dihydro-1H-1,2,4-triazol-1-yl)-5-fluoro-N-(3-fluoro-6-methoxypyridin-2-yl)-2-((1,1,1-trifluoropropan-2-yl)oxy)nicotinamide]
17 | 1.7 nM | 20.2 nM | CCn1c(CO)nn(-c2nc(O[C@@H](C)C(F)(F)F)c(C(=O)Nc3c[nH]nc3C)cc2F)c1=O [Example 57, (S)-6-(4-Ethyl-3-(hydroxymethyl)-5-oxo-4,5-dihydro-1H-1,2,4-triazol-1-yl)-5-fluoro-N-(3-methyl-1H-pyrazol-4-yl)-2-((1,1,1-trifluoropropan-2-yl)oxy)nicotinamide]
18 | 5.8 nM | 23.2 nM | CCn1c(CO)nn(-c2nc(O[C@@H](C)C(F)(F)F)c(C(=O)Nc3c[nH]nc3OC)cc2F)c1=O [Example 58, (S)-6-(4-Ethyl-3-(hydroxymethyl)-5-oxo-4,5-dihydro-1H-1,2,4-triazol-1-yl)-5-fluoro-N-(3-methoxy-1H-pyrazol-4-yl)-2-((1,1,1-trifluoropropan-2-yl)oxy)nicotinamide]
19 | 98.1 nM | > 100 nM | CCn1c(CO)nn(-c2nc(O[C@@H](C)C(F)(F)F)c(C(=O)Nc3cc(C(C)C)nn3C)cc2F)c1=O [Example 59, (S)-6-(4-Ethyl-3-(hydroxymethyl)-5-oxo-4,5-dihydro-1H-1,2,4-triazol-1-yl)-5-fluoro-N-(3-isopropyl-1-methyl-1H-pyrazol-5-yl)-2-((1,1,1-trifluoropropan-2-yl)oxy)nicotinamide]
20 | 254 nM | > 100 nM | CCn1c(CO)nn(-c2nc(O[C@@H](C)C(F)(F)F)c(C(=O)Nc3ncnc(C)c3Cl)cc2F)c1=O [Example 60, (S)-N-(5-Chloro-6-methylpyrimidin-4-yl)-6-(4-ethyl-3-(hydroxymethyl)-5-oxo-4,5-dihydro-1H-1,2,4-triazol-1-yl)-5-fluoro-2-((1,1,1-trifluoropropan-2-yl)oxy)nicotinamide]
21 | 365 nM | > 100 nM | CCn1c(CO)nn(-c2nc(O[C@@H](C)C(F)(F)F)c(C(=O)Nc3cn(C)nc3COC)cc2F)c1=O [Example 61, (S)-6-(4-Ethyl-3-(hydroxymethyl)-5-oxo-4,5-dihydro-1H-1,2,4-triazol-1-yl)-5-fluoro-N-(3-(methoxymethyl)-1-methyl-1H-pyrazol-4-yl)-2-((1,1,1-trifluoropropan-2-yl)oxy)nicotinamide]
22 | 2.7 nM | 8.5 nM | CCn1c(CO)nn(-c2nc(O[C@@H](C)C(F)(F)F)c(C(=O)Nc3c[nH]nc3C3CC3)cc2F)c1=O [Example 62, (S)-N-(3-Cyclopropyl-1H-pyrazol-4-yl)-6-(4-ethyl-3-(hydroxymethyl)-5-oxo-4,5-dihydro-1H-1,2,4-triazol-1-yl)-5-fluoro-2-((1,1,1-trifluoropropan-2-yl)oxy)nicotinamide]

Row | Structure (SMILES) | EC50 [1] | EC50 [2]
23 | CCn1c(CO)nn(-c2nc(O[C@@H](C)C(F)(F)F)c(C(=O)Nc3c(C)cnc(OC)c3Cl)cc2F)c1=O [Example 40, (S)-N-(3-Chloro-2-methoxy-5-methylpyridin-4-yl)-6-(4-ethyl-3-(hydroxymethyl)-5-oxo-4,5-dihydro-1H-1,2,4-triazol-1-yl)-5-fluoro-2-((1,1,1-trifluoropropan-2-yl)oxy)nicotinamide] | 0.31 nM | 0.3 nM
